Source: US20250179050A1, “POLYMORPH AS THYROID HORMONE RECEPTOR AGONISTS AND USE THEREOF” (XIZANG HAISCO PHARMACEUTICAL CO., LTD., priority 2022, published 2025)

Columns and labels:
Assay type in all cases: physicochemical
[1] = Stability test 5: 30° C.±2° C., 65% RH±5% RH, HPLC related substances; settings: for Crystal form / Related Substances (%) Maximum individual impurity / Related Substances (%) Total impurity: 30° C.±2° C.
Procedure: The Form C sample was measured using the HPLC method at 30° C.±2° C., 65% RH±5% RH at months 0, 3, 6, 9, and 12 using a double layer pharmaceutical low density polyethylene bag as an inner wrap and a polyester/aluminum/polyethylene pharmaceutical composite bag as an outer wrap.

[2] = Dynamic moisture sorption and desorption analysis (DVS)
Procedure: Dynamic Moisture Sorption and Desorption Analysis The dynamic moisture sorption and desorption analysis was determined using DVS Intrinsic (SMS, UK). The test was carried out in a gradient mode with a humidity change of 50%-95%-0%-50%, and a humidity change of 10% per gradient in the range of 0% to 90%, and the gradient endpoint was determined in dm/dt, with the gradient endpoint being dm/dt less than 0.002% and held for 10 minutes. After the test was complete, XRPD analysis of the sample was carried out to confirm whether the solid morphology has changed.

[3] = Stability test 2: 40° C.±2° C., 75% RH±5% RH, HPLC related substances and crystal form; settings: for Crystal form / Related Substances (%) Maximum individual impurity / Related Substances (%) Total impurity: 40° C.±2° C.
Procedure: The Form C sample was measured using the HPLC method at 40° C.±2° C., 75% RH±5% RH at months 0, 1, 2, 3, and 6 using a double layer pharmaceutical low density polyethylene bag as an inner wrap and a polyester/aluminum/polyethylene pharmaceutical composite bag as an outer wrap.

[4] = Stability test 4: 25° C.±2° C., 60% RH±5% RH, HPLC related substances; settings: for Crystal form / Related Substances (%) Maximum individual impurity / Related Substances (%) Total impurity: 25° C.±2° C.
Procedure: The Form C sample was measured using the HPLC method at 25° C.±2° C., 60% RH±5% RH at months 0, 3, 6, 9, and 12 using a double layer pharmaceutical low density polyethylene bag as an inner wrap and a polyester/aluminum/polyethylene pharmaceutical composite bag as an outer wrap.

[5] = Stability test 1: high temperature, high humidity, light, accelerated conditions, XRPD; settings: 15 days
Procedure: Around 20 mg of samples were weighed into weighing bottles, stored under high temperature (60° C.), high humidity (25° C., 92.5% RH), light (25° C., 4500 Lux), accelerated (40° C., 75% RH) conditions, respectively, and samples were collected at days 7 and 15 for XRPD characterization.

[6] = Stability test 3: 5° C.±3° C., HPLC related substances; settings: for Crystal form / Related Substances (%) Maximum individual impurity / Related Substances (%) Total impurity: 5° C.±3° C.
Procedure: The Form C sample was measured using the HPLC method at 5° C.±3° C. at months 0, 3, 6, 9, and 12 using a double layer pharmaceutical low density polyethylene bag as an inner wrap and a polyester/aluminum/polyethylene pharmaceutical composite bag as an outer wrap.

[7] = Thermal crystal transformation test (hot stage, XRPD)
Procedure: The present invention further provides a method for preparing the polymorph of any one of Form A to Form Z, including: • (1) suspension method: adding a crude free base of the compound of formula I (which can be prepared according to the methods described in WO 2019240938 A1) to a selected single or binary solvent until a suspension is formed and stirring same under suspension at room temperature to 50° C. for a period of time (e.g., 1 h to 3 days, or 2 h to 24 h, or 2 h to 12 h, or 3 h to 5 h), and then centrifuging and separating the suspension, followed by drying, to obtain the product; or • (2) Anti-solvent crystallization method: adding a crude free base of the compound of formula I to an appropriate amount of a good solvent until completely dissolved, taking an amount of the solution and dropwise adding same to a poor solvent or dropwise adding a poor solvent to the solution, and stirring same to precipitate a solid, followed by separation and drying to obtain the product; or • (3) cooling method: adding a crude free base of the compound of formula I to an appropriate amount of a solvent at 50-80° C. until the solid is just completely dissolved, and transferring the solution to an environment at room temperature for cooling, followed by leaving to stand or crystallization under stirring, separation and drying to obtain the product; or • (4) vapor diffusion method: dropwise adding an appropriate amount of a good solvent to an amount of a crude free base of the compound of formula I at room temperature to completely dissolve the sample or formulating same as a saturated solution of a good solvent; and separately taking an amount of the solution, and leaving the clear solution to stand in a poor solvent atmosphere at room temperature until a solid precipitates out, followed by separation, to obtain the product; or • (5) thermal crystal transformation method: placing an amount of the sample on a glass plate on a hot stage, heating same to the target temperature at a rate (e.g., 5-20° C./min, or 10-15° C./min), and maintaining the temperature for a period of time (e.g., 0.5-5 min, or 1-3 min, or 1-2 min), followed by naturally cooling down to room temperature to obtain a solid.
The different crystal forms, as raw materials, were heated to the target temperature on a hot table and held for 1 min, and cooled to room temperature to obtain solids for the XRPD test.

[8] = Crystal form on leaving to stand at room temperature; settings: room temperature for 3 days
Procedure: To 100 mg of the compound of formula I prepared in Example 1, 1 ml of methanol was added and heated to reflux. 1 ml of acetonitrile was added dropwise, slowly cooled to room temperature, stirred for 3-5 h and centrifuged, and the resulting solid was dried under vacuum overnight at room temperature to give Form U. Form U of the compound of formula I was characterized by XRPD, DSC and TGA, as shown in FIGS. 41-42, respectively. […] Based on the integration results, the roughly estimated mass percentage is about 5.2%. In summary, Form U is a solvate of acetonitrile in a ratio of 1:1 of the compound to acetonitrile.

[2H]C([2H])([2H])[C@@H]1CCc2c(Oc3c(Cl)cc(-n4nc(C#N)c(=O)[nH]c4=O)cc3Cl)n[nH]c(=O)c21 [Form C, (R)-2-(3,5-dichloro-4-((7-(methyl-d3)-1-oxo-2,5,6,7-tetrahydro-1H-cyclopenta [d]pyridazin-4-yl)oxy)phenyl)-3,5-dioxo-2,3,4,5-tetrahydro-1,2,4-triazine-6-carbonitrile]
Crystal form ([1]; 0 months): Form C
Related Substances (%) Maximum individual impurity ([1]; 0 months): 0.05%
Related Substances (%) Total impurity ([1]; 0 months): 0.26%
Crystal form ([1]; 3 months): Form C
Related Substances (%) Maximum individual impurity ([1]; 3 months): 0.05%
Related Substances (%) Total impurity ([1]; 3 months): 0.26%
Crystal form ([1]; 6 months): Form C
Related Substances (%) Maximum individual impurity ([1]; 6 months): 0.05%
Related Substances (%) Total impurity ([1]; 6 months): 0.27%
Crystal form ([1]; 9 months): Form C
Related Substances (%) Maximum individual impurity ([1]; 9 months): 0.05%
Related Substances (%) Total impurity ([1]; 9 months): 0.25%
Crystal form ([1]; 12 months): Form C
Related Substances (%) Maximum individual impurity ([1]; 12 months): 0.05%
Related Substances (%) Total impurity ([1]; 12 months): 0.26%
stability (related substances) ([1]; within 12 months at 30° C.±2° C.): good stability
hygroscopicity ([2]; DVS 50%-95%-0%-50% humidity): almost no hygroscopicity
DVS weight loss ([2]; at 0% humidity): 0.13%
DVS weight gain ([2]; at 95% humidity): 0.20%
crystal form after the DVS test (XRPD) ([2]; samples after the DVS test): no change in crystal form
Crystal form ([3]; 0 months): Form C
Related Substances (%) Maximum individual impurity ([3]; 0 months): 0.05%
Related Substances (%) Total impurity ([3]; 0 months): 0.26%
Crystal form ([3]; 1 month): Form C
Related Substances (%) Maximum individual impurity ([3]; 1 month): 0.05%
Related Substances (%) Total impurity ([3]; 1 month): 0.25%
Crystal form ([3]; 2 months): Form C
Related Substances (%) Maximum individual impurity ([3]; 2 months): 0.05%
Related Substances (%) Total impurity ([3]; 2 months): 0.26%
Crystal form ([3]; 3 months): Form C
Related Substances (%) Maximum individual impurity ([3]; 3 months): 0.05%
Related Substances (%) Total impurity ([3]; 3 months): 0.26%
Crystal form ([3]; 6 months): Form C
Related Substances (%) Maximum individual impurity ([3]; 6 months): 0.05%
Related Substances (%) Total impurity ([3]; 6 months): 0.28%
stability (related substances) ([3]; within 6 months at 40° C.±2° C.): good stability
Crystal form ([4]; 0 months): Form C
Related Substances (%) Maximum individual impurity ([4]; 0 months): 0.05%
Related Substances (%) Total impurity ([4]; 0 months): 0.26%
Crystal form ([4]; 3 months): Form C
Related Substances (%) Maximum individual impurity ([4]; 3 months): 0.05%
Related Substances (%) Total impurity ([4]; 3 months): 0.27%
Crystal form ([4]; 6 months): Form C
Related Substances (%) Maximum individual impurity ([4]; 6 months): 0.05%
Related Substances (%) Total impurity ([4]; 6 months): 0.26%
Crystal form ([4]; 9 months): Form C
Related Substances (%) Maximum individual impurity ([4]; 9 months): 0.05%
Related Substances (%) Total impurity ([4]; 9 months): 0.26%
Crystal form ([4]; 12 months): Form C
Related Substances (%) Maximum individual impurity ([4]; 12 months): 0.05%
Related Substances (%) Total impurity ([4]; 12 months): 0.27%
stability (related substances) ([4]; within 12 months at 25° C.±2° C.): good stability
crystal form stability (XRPD) ([5]; accelerated (40° C., 75% RH)): no change in crystal form
crystal form stability (XRPD) ([5]; high humidity (25° C., 92.5% RH)): no change in crystal form
crystal form stability (XRPD) ([5]; high temperature (60° C.)): no change in crystal form
crystal form stability (XRPD) ([5]; light (25° C., 4500 Lux)): no change in crystal form
Crystal form ([6]; 0 months): Form C
Related Substances (%) Maximum individual impurity ([6]; 0 months): 0.05%
Related Substances (%) Total impurity ([6]; 0 months): 0.26%
Crystal form ([6]; 3 months): Form C
Related Substances (%) Maximum individual impurity ([6]; 3 months): 0.05%
Related Substances (%) Total impurity ([6]; 3 months): 0.27%
Crystal form ([6]; 6 months): Form C
Related Substances (%) Maximum individual impurity ([6]; 6 months): 0.05%
Related Substances (%) Total impurity ([6]; 6 months): 0.26%
Crystal form ([6]; 9 months): Form C
Related Substances (%) Maximum individual impurity ([6]; 9 months): 0.05%
Related Substances (%) Total impurity ([6]; 9 months): 0.26%
Crystal form ([6]; 12 months): Form C
Related Substances (%) Maximum individual impurity ([6]; 12 months): 0.05%
Related Substances (%) Total impurity ([6]; 12 months): 0.26%
stability (related substances) ([6]; within 12 months at 5° C.±3° C.): good stability

[2H]C([2H])([2H])[C@@H]1CCc2c(Oc3c(Cl)cc(-n4nc(C#N)c(=O)[nH]c4=O)cc3Cl)n[nH]c(=O)c21 [Form U, (R)-2-(3,5-dichloro-4-((7-(methyl-d3)-1-oxo-2,5,6,7-tetrahydro-1H-cyclopenta [d]pyridazin-4-yl)oxy)phenyl)-3,5-dioxo-2,3,4,5-tetrahydro-1,2,4-triazine-6-carbonitrile]
crystal form after thermal crystal transformation ([7]; heated to 250° C.): Form C
Results (crystal form after thermal crystal transformation, XRPD) ([7]; target temperature 250° C., heating rate 10° C./min, holding time 1 min): Form C
crystal form after leaving to stand [8]: Form L
